# Laboratory results: US20230148599A1, “FUNGICIDAL MIXTURES CONTAINING PYRAZOLE DERIVATIVES” (FMC Corporation, priority 2020, published 2023)
# Test system: Septoria tritici
# Test: Test A: wheat leaf blotch, preventive spray on wheat seedlings
# Type: in vivo
# Settings: 50 ppm, 100 = 100% disease control, 0 = no control
# Outline: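 Preventive test: one day after spraying seedlings to run-off (concentrations in ppm; acetone/water, 250 ppm PEG400), Septoria tritici spores applied. Scored after 48 h humid incubation at 24 °C plus 17 days at 20 °C, as percent disease control versus untreated controls (100 = full control).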
row,SMILES,Test A disease control rating
1,Cc1nn(C)c(Nc2c(F)cc(Cl)cc2[N+](=O)[O-])c1-c1c(F)cccc1F [compound 98],100%
2,Cc1nn(C)c(Nc2cccc(Cl)c2[N+](=O)[O-])c1-c1c(F)cccc1F [compound 99],99%
3,Cc1cc(Cl)c(Nc2c(-c3c(F)cccc3F)c(C)nn2C)c([N+](=O)[O-])c1 [compound 100],100%
4,Cc1nn(C)c(Nc2c(Cl)cc(Cl)cc2[N+](=O)[O-])c1-c1ccc(F)cc1F [compound 101],100%
5,Cc1nn(C)c(Nc2c(F)cc(Cl)cc2[N+](=O)[O-])c1-c1ccc(F)cc1F [compound 102],100%
6,CCOc1ccc(Nc2c(-c3ccc(F)cc3Cl)c(C)nn2C)c([N+](=O)[O-])c1 [compound 103],97%
7,Cc1nn(C)c(Nc2ccc(OC(C)C)cc2[N+](=O)[O-])c1-c1ccc(F)cc1Cl [compound 104],60%
8,Cc1ccc(Nc2c(-c3c(F)cccc3F)c(C)nn2C)c([N+](=O)[O-])c1 [compound 105],99%
9,Cc1nn(C)c(Nc2c(Cl)cccc2[N+](=O)[O-])c1-c1ccc(F)cc1Cl [compound 108],100%
10,Cc1nn(C)c(Nc2c(F)cc(F)cc2[N+](=O)[O-])c1-c1ccc(F)cc1Cl [compound 109],100%
11,Cc1nn(C)c(Nc2c(Br)cccc2[N+](=O)[O-])c1-c1ccc(F)cc1Cl [compound 110],100%

# Test system: Puccinia recondita f. sp. tritici
# Test: Test B: wheat leaf rust, preventive spray on wheat seedlings
# Type: in vivo
# Settings: 50 ppm, 100 = 100% disease control, 0 = no control
# Outline: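 Preventive test: compound in acetone/water 50/50 with 250 ppm PEG400 was sprayed onto wheat seedlings one day before inoculation with leaf rust spores. After 24 h in saturated air and 7 days in a growth chamber, both at 20 °C, disease control was scored from 0 to 100 against controls.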
row,SMILES,Test B disease control rating
1,Cc1nn(C)c(Nc2c(F)cc(Cl)cc2[N+](=O)[O-])c1-c1c(F)cccc1F [compound 98],97%
2,Cc1nn(C)c(Nc2cccc(Cl)c2[N+](=O)[O-])c1-c1c(F)cccc1F [compound 99],0%
3,Cc1cc(Cl)c(Nc2c(-c3c(F)cccc3F)c(C)nn2C)c([N+](=O)[O-])c1 [compound 100],89%
4,Cc1nn(C)c(Nc2c(Cl)cc(Cl)cc2[N+](=O)[O-])c1-c1ccc(F)cc1F [compound 101],99%
5,Cc1nn(C)c(Nc2c(F)cc(Cl)cc2[N+](=O)[O-])c1-c1ccc(F)cc1F [compound 102],100%
6,CCOc1ccc(Nc2c(-c3ccc(F)cc3Cl)c(C)nn2C)c([N+](=O)[O-])c1 [compound 103],80%
7,Cc1nn(C)c(Nc2ccc(OC(C)C)cc2[N+](=O)[O-])c1-c1ccc(F)cc1Cl [compound 104],0%
8,Cc1ccc(Nc2c(-c3c(F)cccc3F)c(C)nn2C)c([N+](=O)[O-])c1 [compound 105],74%
9,Cc1nn(C)c(Nc2c(Cl)cccc2[N+](=O)[O-])c1-c1ccc(F)cc1Cl [compound 108],100%
10,Cc1nn(C)c(Nc2c(F)cc(F)cc2[N+](=O)[O-])c1-c1ccc(F)cc1Cl [compound 109],100%
11,Cc1nn(C)c(Nc2c(Br)cccc2[N+](=O)[O-])c1-c1ccc(F)cc1Cl [compound 110],98%

# Test system: Blumeria graminis f. sp. tritici
# Test: Test C: wheat powdery mildew, preventive spray on wheat seedlings
# Type: in vivo
# Settings: 50 ppm, 100 = 100% disease control, 0 = no control
# Outline: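 Preventive test: inoculation with spore dust came one day after spraying seedlings to run-off with ppm suspensions in acetone/water (50/50) plus 250 ppm PEG400 surfactant. Visual ratings after 8 days' incubation at 20° C give percent disease control relative to controls.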
row,SMILES,Test C disease control rating
1,Cc1nn(C)c(Nc2c(F)cc(Cl)cc2[N+](=O)[O-])c1-c1c(F)cccc1F [compound 98],93%
2,Cc1nn(C)c(Nc2cccc(Cl)c2[N+](=O)[O-])c1-c1c(F)cccc1F [compound 99],0%
3,Cc1cc(Cl)c(Nc2c(-c3c(F)cccc3F)c(C)nn2C)c([N+](=O)[O-])c1 [compound 100],21%
4,Cc1nn(C)c(Nc2c(Cl)cc(Cl)cc2[N+](=O)[O-])c1-c1ccc(F)cc1F [compound 101],89%
5,Cc1nn(C)c(Nc2c(F)cc(Cl)cc2[N+](=O)[O-])c1-c1ccc(F)cc1F [compound 102],100%
6,CCOc1ccc(Nc2c(-c3ccc(F)cc3Cl)c(C)nn2C)c([N+](=O)[O-])c1 [compound 103],50%
7,Cc1nn(C)c(Nc2ccc(OC(C)C)cc2[N+](=O)[O-])c1-c1ccc(F)cc1Cl [compound 104],72%
8,Cc1ccc(Nc2c(-c3c(F)cccc3F)c(C)nn2C)c([N+](=O)[O-])c1 [compound 105],86%
9,Cc1nn(C)c(Nc2c(Cl)cccc2[N+](=O)[O-])c1-c1ccc(F)cc1Cl [compound 108],97%
10,Cc1nn(C)c(Nc2c(F)cc(F)cc2[N+](=O)[O-])c1-c1ccc(F)cc1Cl [compound 109],100%
11,Cc1nn(C)c(Nc2c(Br)cccc2[N+](=O)[O-])c1-c1ccc(F)cc1Cl [compound 110],56%

# Test system: Phakopsora pachyrhizi
# Test: Test D: Asian soybean rust, preventive spray on soybean seedlings
# Type: in vivo
# Settings: 50 ppm, 100 = 100% disease control, 0 = no control
# Outline: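 Compounds in acetone/water (50/50) with 250 ppm PEG400, dosed in ppm, sprayed to run-off on soybean seedlings; inoculated with P. pachyrhizi spores next day. Held 24 h at 22 °C in saturated air, then 8 days at 22 °C; visual rating of disease control, 0–100, relative to untreated controls.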
row,SMILES,Test D disease control rating
1,Cc1nn(C)c(Nc2c(F)cc(Cl)cc2[N+](=O)[O-])c1-c1c(F)cccc1F [compound 98],0%
2,Cc1nn(C)c(Nc2cccc(Cl)c2[N+](=O)[O-])c1-c1c(F)cccc1F [compound 99],0%
3,Cc1cc(Cl)c(Nc2c(-c3c(F)cccc3F)c(C)nn2C)c([N+](=O)[O-])c1 [compound 100],0%
4,Cc1nn(C)c(Nc2c(Cl)cc(Cl)cc2[N+](=O)[O-])c1-c1ccc(F)cc1F [compound 101],44%
5,Cc1nn(C)c(Nc2c(F)cc(Cl)cc2[N+](=O)[O-])c1-c1ccc(F)cc1F [compound 102],48%
6,CCOc1ccc(Nc2c(-c3ccc(F)cc3Cl)c(C)nn2C)c([N+](=O)[O-])c1 [compound 103],0%
7,Cc1nn(C)c(Nc2ccc(OC(C)C)cc2[N+](=O)[O-])c1-c1ccc(F)cc1Cl [compound 104],0%
8,Cc1ccc(Nc2c(-c3c(F)cccc3F)c(C)nn2C)c([N+](=O)[O-])c1 [compound 105],0%
9,Cc1nn(C)c(Nc2c(Cl)cccc2[N+](=O)[O-])c1-c1ccc(F)cc1Cl [compound 108],86%
10,Cc1nn(C)c(Nc2c(F)cc(F)cc2[N+](=O)[O-])c1-c1ccc(F)cc1Cl [compound 109],93%
11,Cc1nn(C)c(Nc2c(Br)cccc2[N+](=O)[O-])c1-c1ccc(F)cc1Cl [compound 110],73%

# Test system: Botrytis cinerea
# Test: Test E: tomato Botrytis, preventive spray on tomato seedlings
# Type: in vivo
# Settings: 50 ppm, 100 = 100% disease control, 0 = no control
# Outline: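 Preventive test: seedlings sprayed to run-off with compound in acetone/water (50/50) plus 250 ppm PEG400, inoculated one day later with B. cinerea spores. Held 48 h saturated at 20° C, then 3 days at 24° C; disease control scored visually from 0 to 100 versus controls.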
row,SMILES,Test E disease control rating
1,Cc1nn(C)c(Nc2c(F)cc(Cl)cc2[N+](=O)[O-])c1-c1c(F)cccc1F [compound 98],99%
2,Cc1nn(C)c(Nc2cccc(Cl)c2[N+](=O)[O-])c1-c1c(F)cccc1F [compound 99],24%
3,Cc1cc(Cl)c(Nc2c(-c3c(F)cccc3F)c(C)nn2C)c([N+](=O)[O-])c1 [compound 100],26%
4,Cc1nn(C)c(Nc2c(Cl)cc(Cl)cc2[N+](=O)[O-])c1-c1ccc(F)cc1F [compound 101],99%
5,Cc1nn(C)c(Nc2c(F)cc(Cl)cc2[N+](=O)[O-])c1-c1ccc(F)cc1F [compound 102],99%
6,CCOc1ccc(Nc2c(-c3ccc(F)cc3Cl)c(C)nn2C)c([N+](=O)[O-])c1 [compound 103],83%
7,Cc1nn(C)c(Nc2ccc(OC(C)C)cc2[N+](=O)[O-])c1-c1ccc(F)cc1Cl [compound 104],0%
8,Cc1ccc(Nc2c(-c3c(F)cccc3F)c(C)nn2C)c([N+](=O)[O-])c1 [compound 105],73%
9,Cc1nn(C)c(Nc2c(Cl)cccc2[N+](=O)[O-])c1-c1ccc(F)cc1Cl [compound 108],100%
10,Cc1nn(C)c(Nc2c(F)cc(F)cc2[N+](=O)[O-])c1-c1ccc(F)cc1Cl [compound 109],100%
11,Cc1nn(C)c(Nc2c(Br)cccc2[N+](=O)[O-])c1-c1ccc(F)cc1Cl [compound 110],99%

# Test system: Alternaria solani
# Test: Test F: tomato early blight, preventive spray on tomato seedlings
# Type: in vivo
# Settings: 50 ppm, 100 = 100% disease control, 0 = no control
# Outline: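 Preventive test: one day after the compound spray, seedlings were inoculated with A. solani, incubated saturated at 27 °C for 48 h, then kept at 20 °C for 3 days. Test suspensions contained acetone/water 50/50 with 250 ppm PEG400 surfactant. Visual ratings run from 0 (no control) to 100 (full control).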
row,SMILES,Test F disease control rating
1,Cc1nn(C)c(Nc2c(F)cc(Cl)cc2[N+](=O)[O-])c1-c1c(F)cccc1F [compound 98],98%
2,Cc1nn(C)c(Nc2cccc(Cl)c2[N+](=O)[O-])c1-c1c(F)cccc1F [compound 99],0%
3,Cc1cc(Cl)c(Nc2c(-c3c(F)cccc3F)c(C)nn2C)c([N+](=O)[O-])c1 [compound 100],0%
4,Cc1nn(C)c(Nc2c(Cl)cc(Cl)cc2[N+](=O)[O-])c1-c1ccc(F)cc1F [compound 101],0%
5,Cc1nn(C)c(Nc2c(F)cc(Cl)cc2[N+](=O)[O-])c1-c1ccc(F)cc1F [compound 102],99%
6,CCOc1ccc(Nc2c(-c3ccc(F)cc3Cl)c(C)nn2C)c([N+](=O)[O-])c1 [compound 103],0%
7,Cc1nn(C)c(Nc2ccc(OC(C)C)cc2[N+](=O)[O-])c1-c1ccc(F)cc1Cl [compound 104],0%
8,Cc1ccc(Nc2c(-c3c(F)cccc3F)c(C)nn2C)c([N+](=O)[O-])c1 [compound 105],0%
9,Cc1nn(C)c(Nc2c(Cl)cccc2[N+](=O)[O-])c1-c1ccc(F)cc1Cl [compound 108],77%
10,Cc1nn(C)c(Nc2c(F)cc(F)cc2[N+](=O)[O-])c1-c1ccc(F)cc1Cl [compound 109],99%
11,Cc1nn(C)c(Nc2c(Br)cccc2[N+](=O)[O-])c1-c1ccc(F)cc1Cl [compound 110],0%
